The solubility is how much of the substance goes into solution per volume. The low end stands for little dissolved substance, the high end for much dissolved substance. A word on the AUC(0-t): it is exposure summed from dosing to a finite time, without extrapolation to infinity. One may read the Cmax as the maximum level reached in the sampled fluid or tissue.

A short description of series [1]: Equilibrium solubility in water. The series is classed as physicochemical. To be noted: after equilibrium in water at room temperature for 24 hours.
Series [2] in a line: Solubility profiles in pH 6.8 phosphate buffer. The series is classed as physicochemical. To be noted: aqueous buffer, thermodynamic from solid, 37° C., 150 rpm, n = 3. The method, then: Phosphate buffer (pH 6.8): 3.40 g of potassium dihydrogen phosphate and 0.45 g of sodium hydroxide were dissolved in 500 mL of water.
Type A: About 8.0 mg of Type A sample was added to 20 mL of the phosphate buffer (pH 6.8) in a 30-mL glass vial. The vial was capped, placed in a shaker, and kept shaking with 150 rpm at 37° C. At indicated time intervals (10, 30, 60, 120, 240 min), a fraction of the suspension was removed and filtered through a 0.45-μm filter by discarding the first part of the filtrate. The filtrate was diluted and then analyzed by HPLC.
ASD: An appropriate amount of ASD (about 3.0 mg of Compound I) was added to 7.5 mL of the phosphate buffer (pH 6.8) in a 30-mL glass vial. The vial was capped, placed in a shaker, and kept shaking with 150 rpm at 37° C. At indicated time intervals (10, 30, 60, 120, 240 min), a fraction of the suspension was removed and centrifuged at 12,000 rpm for 5 minutes to give a clear solution that was then analyzed by HPLC.

The nature of series [3]: Glass transition temperature determination by DSC. The series is classed as physicochemical. To be noted: 0 to 210° C. at 10° C./min. The method, then: Type A: Accurately weighted Type A sample (2˜5 mg) was placed in a DSC pan which was then sealed and placed in TA Instruments Q2000. The pan was heated from room temperature to 230° C. at a rate of 20° C./min and after 5 min, rapidly cooled to 0° C. at a rate of 50° C./min. After another 5 min, the DSC analysis was carried out between 0 to 210° C. at a rate of 10° C./min.
ASD: Accurately weighted ASD sample (2˜5 mg) was placed in a DSC pan which was then sealed and placed in TA Instruments Q2000. The pan was heated from room temperature to 135° C. at a rate of 20° C./min and after 5 minutes, rapidly cooled to 0° C. at a rate of 50° C./min. After another 5 min, the DSC analysis was carried out between 0 to 210° C. at a rate of 10° C./min (FIG. 2 and FIG. 3).
On the technique in general: DSC measures the heat that a sample takes up or gives off during a temperature scan.

The nature of series [4]: Stability assessment of ASD (XRPD, DSC, solubility, relative substances after storage). The series is classed as physicochemical. To be noted: no storage (drug substance). The source says:
Capped brown glass vials each containing an ASD sample (HPMCAS-10-SDD and PVPVA-10-HME) were placed inside stability chambers.

A short description of series [5]: In vivo PK, oral administration in beagle dogs. The note with it: dog, blood, fasted beagle dogs, 3 mg/kg, Type A as 0.5% MC suspension, HPMCAS-10-SDD as tablet. How it is done:
Type A and HPMCAS-10-SDD were formulated with excipients, respectively. The PK properties of two formulations administered orally in beagle dogs were evaluated. Each formulation was tested in three dogs, each weighed 8˜12 kg.
A formulation was prepared by wet granulation. Firstly, mannitol, pregelatinized starch, sodium carboxymethyl starch and sodium dodecyl sulfate of different amounts were mixed evenly according to Table 8. Secondly, Type A and Povidone K30 were added into an appropriate amount of absolute alcohol, stirred, and mixed as adhesive. Finally, the adhesive was added to the evenly mixed excipients, followed by granulation, drying, addition of magnesium stearate, and mixing into a powder.
The above formulation was added to 0.5% methylcellulose (MC) to give a suspension containing 0.6 mg/mL of Compound I. The suspension was then orally administered to fasted beagle dogs at 5 mL/kg, which was equivalent to a dose of 3 mg/kg. Blood samples were collected at 0.25, 0.5, 1, 2, 4, 8 and 24 hours post dose. Concentrations of Compound I were quantified by LC-MS/MS analysis using an API-4500 mass spectrometer.
A formulation was prepared by dry granulation. […]
Four tablets were orally administered to fasted beagle dogs at a dose of 3 mg/kg. […] Concentrations of Compound I were quantified by LC-MS/MS analysis.

In brackets after ≈: the same amount, converted by molar mass.

Turning to `C=CC(=O)N1CC[C@H](n2nc(C#Cc3cc(OC)cc(OC)c3)c(C(N)=O)c2NC)C1` [Type A, (S)-1-(1-acryloylpyrrolidin-3-yl)-3-((3,5-dimethoxyphenyl)ethynyl)-5-(methylamino)-1H-pyrazole-4-carboxamide], in series [1], the solubility came out at 6.4 µg/mL (≈ 15.1 µM). Besides, the solubility at 10 min in series [2] (10 min) came out at 4.88 µg/mL (≈ 11.5 µM). The compound further gave a solubility at 30 min in series [2] (30 min) of 7.91 µg/mL (≈ 18.7 µM). In series [2] (60 min), this compound had a solubility at 60 min of 7.81 µg/mL (≈ 18.4 µM). In series [2] (120 min), this compound showed a solubility at 120 min of 7.62 µg/mL (≈ 18 µM). In series [2] (240 min), this compound came in with a solubility at 240 min of 8.47 µg/mL (≈ 20 µM). Besides, the Tg in series [3] came out at 70.1 °C. Besides, the “Total Impurities” value in series [4] was found to be 0.19%. In series [5], this compound gave an AUC(0-t) of 1250 ng·h/mL and a Cmax of 270 ng/mL.
